Calls of active or inactive are those of the source.
Experiments:
[1] = test system: Erythrocyte; test: Induction of eryptosis in human erythrocytes assessed as hemolysis-mediated hemoglobin release at 1 uM after 48 hrs by photometric analysis; assay type: functional, cell-based
[2] = test system: Erythrocyte; test: Induction of eryptosis in human erythrocytes assessed as phospholipid scrambling of the cell membrane at >= 5 uM after 48 hrs using Annexin V-FITC staining by confocal laser scanning microscopy; assay type: functional, cell-based
[3] = test system: Erythrocyte; test: Induction of eryptosis in human erythrocytes assessed as cell shrinkage measuring decrease in forward scatter of the cells at 5 uM after 48 hrs by […] FACS analysis; assay type: functional
[4] = test system: Erythrocyte; test: Induction of eryptosis in human erythrocytes assessed as increase in cytosolic Ca2+ concentration at >= 5 uM after 48 hrs by fluo-3/AM-fluorescence-based FACS analysis; assay type: functional, cell-based
[5] = test system: Erythrocyte; test: Induction of eryptosis in human erythrocytes assessed as stimulation of ceramide formation at 10 uM after 48 hrs by FITC-based flow cytometry; assay type: functional, cell-based
[6] = test system: Erythrocyte; test: Induction of eryptosis in human erythrocytes assessed as decrease in intracellular ATP concentration at 10 uM after 48 hrs by luciferase-based luminometry; assay type: functional, cell-based
[7] = test system: Erythrocyte; test: Induction of eryptosis in human erythrocytes assessed as phospholipid scrambling of the cell membrane at 10 uM after 48 hrs using Annexin V-FITC staining by confocal laser scanning microscopy in absence of Ca2+; assay type: functional, cell-based
[8] = test system: Erythrocyte; test: Induction of apoptosis in human erythrocytes assessed as scrambling of the cell membrane at 0.5 to 10 uM after 48 hrs using Annexin V-FITC staining by confocal laser scanning microscopy in presence of Ca2+; assay type: functional, cell-based

Measured: Activity

C[C@H]1[C@H](C)CC[C@]2(C(=O)O)CC[C@]3(C)C(=CC[C@@H]4[C@@]5(C)CC[C@H](O)C(C)(C)[C@@H]5CC[C@]43C)[C@H]12
inactive: [5] | [6] | [7]
active: all other assays above

Reference: ChEMBL document CHEMBL1921741, “Triggering of erythrocyte cell membrane scrambling by ursolic acid” (J Nat Prod, 2011)
